Data published in PMC12693419, “Design, Synthesis, Biological Evaluation, and In Silico Studies of Novel Multitarget Cinnamic Acid Hybrids” (Molecules, 2025).
Values belong to the molecule of their own block, whether it stands above or below them.

Legend:
[1] = In vitro inhibition of linoleic acid lipid peroxidation (AAPH); details: 100 μM; anti-lipid peroxidation
Text: In the present study, the aim was to evaluate the anti-lipid peroxidation activities of the synthesized compounds 5a–i, 6a–i, 9a–i, and 11 and compare their efficacy to that of Trolox, a well-known antioxidant. Using the water-soluble compound 2,2′-azobis(2-amidinopropane) hydrochloride (AAPH), peroxyl radicals are generated through spontaneous thermal decomposition in vitro. This experimental setup imitated the lipid peroxidation processes occurring in cells due to radical activity allowing the investigation of the effectiveness of the tested compounds under conditions resembling cellular oxidative stress.
An in vitro assay was performed following previously established protocols. The compound 2,2′-Azobis(2-methylpropionamidine) dihydrochloride (AAPH) was used as a controlled source of thermally generated alkylperoxy free radicals. The formation of conjugated diene hydroperoxides through the oxidation of sodium linoleate in an aqueous dispersion at 37 °C was measured by monitoring absorbance at 234 nm. The results were compared with the reference compound, Trolox (93%) (Table 6).

[2] = biological target: T1, soybean lipoxygenase isoenzyme-1 (SLOX-1) (Glycine max, UniProt P08170); assay: In vitro inhibition of soybean lipoxygenase; format: biochemical; details: for LOX Inh. IC50: pH 9.0; for IC50: pH 9.0, read-out: LOX Inh. IC50
T1 construct: purchased Merck and Sigma-Aldrich
T1 sequence (P08170 1-839): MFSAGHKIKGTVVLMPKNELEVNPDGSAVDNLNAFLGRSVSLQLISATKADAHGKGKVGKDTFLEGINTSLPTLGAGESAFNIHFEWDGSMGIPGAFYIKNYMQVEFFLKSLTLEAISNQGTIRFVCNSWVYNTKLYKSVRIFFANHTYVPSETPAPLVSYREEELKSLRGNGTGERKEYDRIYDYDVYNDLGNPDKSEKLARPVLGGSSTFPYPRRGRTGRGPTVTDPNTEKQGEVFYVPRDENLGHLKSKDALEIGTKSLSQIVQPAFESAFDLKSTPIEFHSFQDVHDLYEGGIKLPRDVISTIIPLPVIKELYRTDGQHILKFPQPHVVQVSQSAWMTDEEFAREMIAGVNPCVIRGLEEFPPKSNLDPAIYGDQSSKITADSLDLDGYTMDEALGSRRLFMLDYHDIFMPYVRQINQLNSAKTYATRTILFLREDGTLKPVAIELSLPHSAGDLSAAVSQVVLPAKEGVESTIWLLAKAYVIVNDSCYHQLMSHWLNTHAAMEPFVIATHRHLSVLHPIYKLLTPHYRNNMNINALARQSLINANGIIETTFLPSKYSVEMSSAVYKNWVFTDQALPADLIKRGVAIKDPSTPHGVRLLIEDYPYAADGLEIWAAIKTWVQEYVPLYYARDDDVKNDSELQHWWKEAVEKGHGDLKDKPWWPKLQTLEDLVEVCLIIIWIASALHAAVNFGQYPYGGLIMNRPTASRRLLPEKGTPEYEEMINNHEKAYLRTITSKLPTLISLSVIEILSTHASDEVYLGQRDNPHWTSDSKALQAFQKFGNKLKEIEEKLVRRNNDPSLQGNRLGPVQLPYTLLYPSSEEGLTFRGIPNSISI
Protocol: In vitro anti-LOX activities were evaluated using soybean lipoxygenase isoenzyme-1 (SLOX-1), a commonly used model for mammalian LOXs.
An in vitro study was conducted following a previously reported method. The tested compounds were dissolved in DMSO (100 µM) and incubated at room temperature with 0.1 mL of sodium linoleate as the substrate and 0.2 mL of soybean lipoxygenase solution in Tris-HCl buffer (pH 9.0).

[3] = In vitro determination of NO release with Griess reagent; details: 100 μM, L-cysteine, pH 7.4, 37 °C, 60 min
Text: This assay evaluates the ability of nitrate esters to release nitric oxide (NO). First, sodium nitroprusside (SNP) reacts with the thiol compound, cysteine, which serves as a reducing agent (Scheme 5). The thiol donates electrons, facilitating the breakdown of the nitroprusside complex. Afterwards, the reaction leads to the formation of intermediate complexes, such as nitrosothiol species and the decomposition of these intermediates results in the release of nitric oxide (NO). According to the literature, measurements are conducted both in the presence and absence of the thiol agent, cysteine. No significant difference was observed between the two experimental conditions, and the results were reproducible. Sodium nitroprusside (SNP) was used as the reference compound [65].
The compounds (from a 10 mM stock solution in DMSO, final concentration 100 μM) are added (20 μL) to each test tube. Then, 2 mL of phosphate buffer solution (pH 7.4) is added. L-cysteine, used as the thiol agent, is added to the mixture at a final concentration of 0.5 mM. The solution is incubated at 37 °C for 60 min, after which 1 mL is removed and mixed with 250 μL of Griess reagent (4 g sulfanilamide, 0.2 g N-(1-naphthyl)-ethylenediamine dihydrochloride, and 10 mL of H3PO4 solution, final volume adjusted to 100 mL). The mixture is allowed to stand for 10 min at room temperature, and the absorbance of the produced compound is measured at 540 nm. Sodium nitroprusside (SNP) is used as the reference compound. The results are presented as the release of NO2^− (% NO2^− (mol/mol)) induced by the compounds in the presence of L-cysteine (Table 6).

[4] = biological target: T2, bovine serum albumin (Bos taurus, UniProt P02769); assay: In vitro inhibition of albumin denaturation; details: heat denaturation, 60 °C 10 min
T2 construct: bovine serum albumin solution (fraction V); purchased Merck and Sigma-Aldrich; host or cells: bovine serum (fraction V)
Protocol: The ability of a compound to inhibit the thermal denaturation of albumin is considered an indicator of anti-inflammatory activity. Heat exposure simulates conditions of cellular stress or inflammation, during which protein and tissue damage occur. Certain substances can protect proteins from denaturation upon heating by stabilizing their structure and preventing aggregation and precipitation.
Inhibition of albumin denaturation was measured following the reported method. In a test tube, 1 mL of bovine serum albumin solution (fraction V, 1% w/v in phosphate buffer, pH 7.4) and 100 μL of the test compound solution were added sequentially. The mixture was incubated at 37 °C for 15 min, followed by heating at 60 °C for 10 min. After cooling to room temperature, the absorbance was measured at 660 nm. DMSO was used as the blank, and the results were compared to acetylsalicylic acid, which served as the reference compound (Table 6).

[5] = biological target: T3, ovine COX-2 (Ovis aries, UniProt P79208); assay: In vitro inhibition of ovine cyclooxygenase-2
T3 sequence (P79208 17-603): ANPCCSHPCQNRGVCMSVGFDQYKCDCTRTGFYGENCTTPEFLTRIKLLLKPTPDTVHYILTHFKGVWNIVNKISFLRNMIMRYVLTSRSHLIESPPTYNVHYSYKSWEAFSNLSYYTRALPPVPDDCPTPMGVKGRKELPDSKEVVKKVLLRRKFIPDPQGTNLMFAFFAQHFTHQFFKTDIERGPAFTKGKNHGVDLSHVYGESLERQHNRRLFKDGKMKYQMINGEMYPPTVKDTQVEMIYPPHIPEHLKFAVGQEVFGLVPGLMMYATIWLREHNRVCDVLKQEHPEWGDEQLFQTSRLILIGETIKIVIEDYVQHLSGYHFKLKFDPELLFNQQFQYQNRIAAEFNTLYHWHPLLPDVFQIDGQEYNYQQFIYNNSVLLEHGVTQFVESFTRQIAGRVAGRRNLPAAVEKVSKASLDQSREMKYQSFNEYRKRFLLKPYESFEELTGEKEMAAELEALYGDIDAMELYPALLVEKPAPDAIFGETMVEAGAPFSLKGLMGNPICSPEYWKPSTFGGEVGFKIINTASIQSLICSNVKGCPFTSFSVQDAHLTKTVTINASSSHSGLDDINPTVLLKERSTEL

T2 sequence (P02769 25-607): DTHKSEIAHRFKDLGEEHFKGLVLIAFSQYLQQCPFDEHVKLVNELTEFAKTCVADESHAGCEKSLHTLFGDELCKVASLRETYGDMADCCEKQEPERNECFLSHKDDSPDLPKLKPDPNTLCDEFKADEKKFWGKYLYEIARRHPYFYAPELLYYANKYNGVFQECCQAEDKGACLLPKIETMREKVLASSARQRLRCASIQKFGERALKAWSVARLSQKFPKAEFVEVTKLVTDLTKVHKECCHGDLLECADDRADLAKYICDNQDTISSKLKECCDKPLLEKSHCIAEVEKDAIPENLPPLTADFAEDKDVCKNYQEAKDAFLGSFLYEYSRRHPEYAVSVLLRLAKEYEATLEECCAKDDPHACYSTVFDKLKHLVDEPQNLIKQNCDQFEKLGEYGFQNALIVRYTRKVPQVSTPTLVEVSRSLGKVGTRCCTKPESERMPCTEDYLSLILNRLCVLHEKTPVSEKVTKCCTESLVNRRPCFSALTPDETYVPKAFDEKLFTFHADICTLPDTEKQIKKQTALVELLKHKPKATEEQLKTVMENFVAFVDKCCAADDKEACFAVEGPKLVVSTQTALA

- LOX Inh. IC50 [2]: no
- Albumin (inhibition of albumin denaturation) [4]: 63%
- COX-2 Inh. IC50 [5]: no
Structure (SMILES): C/C(=N\O)c1ccc(NC(=O)COC(=O)/C=C/c2cc3ccccc3s2)cc1 [Compound 6e, 2-((4-((E)-1-(Hydroxyimino)ethyl)phenyl)amino)-2-oxoethyl (E)-3-(benzo[b]thiophen-2-yl)acrylate]
- AAPH Inh. at 100 μΜ [1]: no
- %NO2^− Release mol/mol at 100 μΜ [3]: 1.1%

- IC50 [2]: 70 µM
- Albumin (inhibition of albumin denaturation) [4]: no
- COX-2 Inh. IC50 [5]: no
Structure (SMILES): O=C(/C=C/c1cc2ccccc2o1)OCc1c(-c2ccccc2)no[n+]1[O-] [Compound 9f, (E)-3-(((3-(Benzofuran-2-yl)acryloyl)oxy)methyl)-4-phenyl-1,2,5-oxadiazole 2-oxide]
- AAPH Inh. at 100 μΜ [1]: 97%
- %NO2^− Release mol/mol at 100 μΜ [3]: no

- IC50 [2]: 62.5 µM
- Albumin (inhibition of albumin denaturation) [4]: no
Structure (SMILES): C/C(=N\O)c1ccc(NC(=O)COC(=O)/C(=C/c2cccc3ccccc23)c2ccccc2)cc1 [Compound 6h, 2-((4-((E)-1-(Hydroxyimino)ethyl)phenyl)amino)-2-oxoethyl (E)-3-(naphthalen-1-yl)-2-phenylacrylate]
- AAPH Inh. at 100 μΜ [1]: 97.7%
- %NO2^− Release mol/mol at 100 μΜ [3]: no activity and no

- IC50 [2]: 44 µM
- Albumin (inhibition of albumin denaturation) [4]: no
Structure (SMILES): C/C(=N\O)c1ccc(NC(=O)COC(=O)/C(=C/c2ccccc2)c2ccccc2)cc1 [Compound 6g, 2-((4-((E)-1-(Hydroxyimino)ethyl)phenyl)amino)-2-oxoethyl (E)-2,3-diphenylacrylate]
- AAPH Inh. at 100 μΜ [1]: 89%
- %NO2^− Release mol/mol at 100 μΜ [3]: no activity and no

Further lines, the molecule ahead of its results:

Structure (SMILES): Cc1c(C)c2c(c(C)c1O)CCC(C)(C(=O)O)O2 (stereo not drawn) [Trolox, reference compound]
- AAPH Inh. at 100 μΜ [1]: 93%

Structure (SMILES): CC(=O)c1ccc(NC(=O)COC(=O)/C=C/c2cccs2)cc1 [Compound 5c, 2-((4-Acetylphenyl)amino)-2-oxoethyl (E)-3-(thiophen-2-yl)acrylate]
- AAPH Inh. at 100 μΜ [1]: 29%
- LOX Inh. IC50 [2]: no

Structure (SMILES): CC(=O)c1ccc(NC(=O)COC(=O)/C=C/c2cc3ccccc3s2)cc1 [Compound 5e, 2-((4-Acetylphenyl)amino)-2-oxoethyl (E)-3-(benzo[b]thiophen-2-yl)acrylate]
- AAPH Inh. at 100 μΜ [1]: no
- LOX Inh. IC50 [2]: no

Structure (SMILES): CC(=O)c1ccc(NC(=O)COC(=O)/C=C/c2cc3ccccc3o2)cc1 [Compound 5f, 2-((4-Acetylphenyl)amino)-2-oxoethyl (E)-3-(benzofuran-2-yl)acrylate]
- AAPH Inh. at 100 μΜ [1]: 39%
- IC50 [2]: 80 µM

Structure (SMILES): O=C(O)/C=C/c1ccccc1 [Cinnamic acid]
- AAPH Inh. at 100 μΜ [1]: 78%

Structure (SMILES): CC(=O)c1ccc(NC(=O)COC(=O)C=Cc2ccccc2)cc1 [Compound 5a, 2-((4-Acetylphenyl)amino)-2-oxoethyl Cinnamate]
- AAPH Inh. at 100 μΜ [1]: 31.9%
- LOX Inh. IC50 [2]: no

Structure (SMILES): CC(=O)c1ccc(NC(=O)COC(=O)/C=C/c2ccco2)cc1 [Compound 5d, 2-((4-Acetylphenyl)amino)-2-oxoethyl (E)-3-(furan-2-yl)acrylate]
- AAPH Inh. at 100 μΜ [1]: no
- LOX Inh. IC50 [2]: no

Structure (SMILES): CC(=O)c1ccc(NC(=O)COC(=O)/C=C/c2cccc3ccccc23)cc1 [Compound 5b, 2-((4-Acetylphenyl)amino)-2-oxoethyl (E)-3-(naphthalen-1-yl)acrylate]
- AAPH Inh. at 100 μΜ [1]: inactive and no
- IC50 [2]: 57.5 µM

Structure (SMILES): CC(=O)c1ccc(NC(=O)COC(=O)/C(=C/c2cccs2)c2ccccc2)cc1 [Compound 5i, 2-((4-Acetylphenyl)amino)-2-oxoethyl (E)-2-phenyl-3-(thiophen-2-yl)acrylate]
- AAPH Inh. at 100 μΜ [1]: 77%
- LOX Inh. IC50 [2]: no

Structure (SMILES): CC(=O)c1ccc(NC(=O)COC(=O)/C(=C/c2cccc3ccccc23)c2ccccc2)cc1 [Compound 5h, 2-((4-Acetylphenyl)amino)-2-oxoethyl (E)-3-(naphthalen-1-yl)-2-phenylacrylate]
- AAPH Inh. at 100 μΜ [1]: 75.8%
- IC50 [2]: 33 µM

Structure (SMILES): CC(=O)c1ccc(NC(=O)COC(=O)/C(=C/c2ccccc2)c2ccccc2)cc1 [Compound 5g, 2-((4-Acetylphenyl)amino)-2-oxoethyl (E)-2,3-diphenylacrylate]
- AAPH Inh. at 100 μΜ [1]: 94.7%
- LOX Inh. IC50 [2]: no

Structure (SMILES): CC(=O)Oc1ccccc1C(=O)O [Acetylsalicylic acid, acetylsalicylic acid, reference compound]
- Albumin (inhibition of albumin denaturation) [4]: 31%
